Data as given in PMC7496096, “Functional Characterisation of ClpP Mutations Conferring Resistance to Acyldepsipeptide Antibiotics in Firmicutes” (Chembiochem, 2020).
Converted amounts (≈) assume the structure as drawn.

Assays:
S. aureus RC14 = type: cell-based, Staphylococcus aureus; settings: resistant clone of S. aureus ATCC 29213; ClpP I91→T; A96→V (ClpP core; β3, β4)
Method: (§1) Determination of antibacterial activity: ADEP1 was purified from the culture supernatant of S. hawaiiensis NRRL 15010 as described.4 ADEPs 2, 4, 7, 9 were custom synthesised by EMC Microcollections, Tübingen, or provided by AiCuris, Wuppertal, Germany. The minimal inhibitory concentration (MIC) was determined by broth microdilution in Mueller‐Hinton broth (without cation adjustment) according to the guidelines of the Clinical Laboratory Standards Institute (CLSI).69 The inoculum was set to 5×10^4 CFU mL^−1 to allow some distance to the determined spontaneous resistance frequencies. […] All other ADEPs were used from DMSO stock solutions kept at −20 °C.
(§2) Screening for ADEP‐resistant mutants and determination of resistance rates: Single colonies of wild‐type strains grown on Mueller‐Hinton agar plates overnight were suspended in sterile saline and a final inoculum of 5×10^6 cells was spread on plates supplemented with different ADEP congeners at 4× and 10× the MIC. For B. subtilis strain 3xclpP, ADEP7‐containing Mueller‐Hinton agar plates were additionally supplemented with 1 mM IPTG. Resistant colonies were counted after 24 h at 37 °C and colonies were randomly chosen for MIC determinations and sequencing. Mutations in the clpP gene of the respective isolated mutants were analysed by amplifying the clpP gene (and upstream promoter region) by PCR and sequencing of the resulting PCR amplicons (LGC genomics). Sequencing data were analysed by using SnapGene software (GSL Biotech).

S. aureus RC15 = type: cell-based, Staphylococcus aureus; settings: resistant clone of S. aureus ATCC 29213; ClpP E52→STOP, premature stop
Method: as §1, §2

S. aureus RC7 = type: cell-based, Staphylococcus aureus; settings: resistant clone of S. aureus ATCC 29213; ClpP Q89→STOP, premature stop
Method: as §1, §2

[1] = tested on: B. subtilis 3xclpP clones; type: cell-based, Bacillus subtilis; settings: B. subtilis 3xclpP resistant clones
Method: as §1, §2

B. subtilis RC10 = type: cell-based, Bacillus subtilis; settings: resistant clone of B. subtilis 168; ClpP A177→V (C-terminus; α7)
Method: as §1, §2

B. subtilis RC11 = type: cell-based, Bacillus subtilis; settings: resistant clone of B. subtilis 168; ClpP Q132→STOP, premature stop
Method: as §1, §2

B. subtilis RC12 = type: cell-based, Bacillus subtilis; settings: resistant clone of B. subtilis 168; ClpP A101→T (ClpP core; α4)
Method: as §1, §2

B. subtilis RC1 = type: cell-based, Bacillus subtilis; settings: resistant clone of B. subtilis 168; ClpP E156→STOP, premature stop
Method: as §1, §2

B. subtilis RC2 = type: cell-based, Bacillus subtilis; settings: resistant clone of B. subtilis 168; ClpP L3→STOP, premature stop
Method: as §1, §2

B. subtilis RC3 = type: cell-based, Bacillus subtilis; settings: resistant clone of B. subtilis 168; ClpP A76→T (ClpP core; α3)
Method: as §1, §2

B. subtilis RC4 = type: cell-based, Bacillus subtilis; settings: resistant clone of B. subtilis 168; G insertion, frame shift, premature stop (E163→STOP)
Method: as §1, §2

B. subtilis RC5 = type: cell-based, Bacillus subtilis; settings: resistant clone of B. subtilis 168; ClpP K85→STOP, premature stop
Method: as §1, §2

B. subtilis RC6 = type: cell-based, Bacillus subtilis; settings: resistant clone of B. subtilis 168; ClpP N65→N; Y183→F (C-terminus; α7)
Method: as §1, §2

B. subtilis RC7 = type: cell-based, Bacillus subtilis; settings: resistant clone of B. subtilis 168; ClpP Q132→STOP, premature stop
Method: as §1, §2

B. subtilis RC8 = type: cell-based, Bacillus subtilis; settings: resistant clone of B. subtilis 168; ClpP R142→H, intra-ring interaction
Method: as §1, §2

B. subtilis RC9 = type: cell-based, Bacillus subtilis; settings: resistant clone of B. subtilis 168; ClpP I165→N (equatorial interface; α6)
Method: as §1, §2

C[C@@H]1C[C@H]2C(=O)OC[C@H](NC(=O)[C@H](Cc3cc(F)cc(F)c3)NC(=O)CCC3CCCCC3)C(=O)N3CCC[C@H]3C(=O)N3CCCC[C@H]3C(=O)N[C@@H](C)C(=O)N2C1 [ADEP2]
MIC (S. aureus RC14): >64 µg/mL | MIC (S. aureus RC15): >64 µg/mL | MIC (S. aureus RC7): >64 µg/mL | MIC, clpP mutations in the ectopic loci ([1]; mutation in lacA or aprE ectopic copy): ~1 µg/mL (≈ 1.25 µM) | MIC, clpP mutation in the original locus ([1]; mutation in native clpP locus): > 64 µg/mL | MIC (B. subtilis RC10): >64 µg/mL | MIC (B. subtilis RC11): >64 µg/mL | MIC (B. subtilis RC12): >64 µg/mL | MIC (B. subtilis RC1): >64 µg/mL | MIC (B. subtilis RC2): >64 µg/mL | MIC (B. subtilis RC3): 16 to 32 µg/mL | MIC (B. subtilis RC4): >64 µg/mL | MIC (B. subtilis RC5): >64 µg/mL | MIC (B. subtilis RC6): >64 µg/mL | MIC (B. subtilis RC7): >64 µg/mL | MIC (B. subtilis RC8): >64 µg/mL | MIC (B. subtilis RC9): >64 µg/mL
